Source: US20060040122A1, “Antimicrobial drywall” (Verichem, Inc., priority 2004, published 2006)
Counter-ions that a name gives are not always drawn.

Legend:
Penicillium pinophillum = assay: Minimum Inhibitory Concentration synergy test on fungi (Kull et al procedure); assay type: cell-based
Text: (§1) The procedure followed is adapted from and follows very closely, the procedure described in the Kull et al article. The concentrations listed in Table 1 are the Minimum Inhibitory Concentrations.
(§2) In Table 3, synergism test results are summarized for a 1:26 weight ratio of OPP:DGH against three molds, using the same test system as for Table 1
(§3) Synergism has also been shown for combinations of DGH and NaMetam (sodium methyldithiocarbamate). The Table 5 results were obtained in a manner similar to those of Table 1: […]

[1] = tested on: Wild strain - Alternaria sp.; assay: as above; assay type: cell-based
Text: as §1, §2, §3

Mixed inoculum = assay: as above; assay type: cell-based
Text: as §1, §2, §3

Aspergillus niger = assay: as above; assay type: cell-based
Text: as §1, §2, §3

[2] = tested on: artificial bacterial consortium containing approximately equal numbers of six bacterial strains; assay: Synergism dose protocol: growth inhibition of a bacterial consortium in synthetic white water (O.D. 650 nm); assay type: cell-based; conditions: end point 50% inhibition of bacterial growth; pH 5.5; SI less than 1 = synergism
Method: O-phenylphenol was tested in combination with DGH. The synergism of the blends was determined using a dose protocol. The combinations were evaluated in synthetic white water with pH value of 5.5. The materials were tested against an artificial bacterial consortium containing approximately equal numbers of six bacterial strains. Although the test strains are representative of organisms present in paper mill systems, the effect is not limited to these bacteria. Two of the strains were Kiebsiella pneumoia (ATCC 13883) and Pseudomonas aeruginosa (ATCC 15442). […] Optical density (O>D>) readings at 650 nm were taken initially (t0) and after 4 hours (t4) of incubation. […]
The inhibition values can be plotted versus dosage for each active and the particular blend. […] In the examples (tables) below, the 50 values are expressed as parts per million (ppm) of active material.
The synergism index (SI) was calculated by the equation below, which was proposed by F. C. […]
QA=quantity of compound A in mixture, producing the end point
Qa=quantity of compound A1 acting alone, producing the end point
QB=quantity of compound B in mixture, producing the end point
Qb=quantity of compound B1 acting alone, producing the end point If SI is less than 1, synergism exists; if SI is greater than 1, antagonism exists; if SI is equal to 1, an additive effect exists.

[3] = tested on: Aureobasidium pullulans ATCC 9348, Aspergillus niger ATCC 6275, Penicillium sp. ATCC 9849; assay: ASTM Test Method D-3273 00, resistance to surface mold fungi and mildew, in adhesives; conditions: similar tests, same organisms; in Titebond Solvent Free Fast Grab FRP Adhesive and Titebond Solvent Free Subfloor Adhesive
Text: In addition to experiments as described above, tests were made to compare combinations of DGH (dodecyl guanidine hydrochloride) and OPP against microorganisms known to generate what is commonly known as mildew, when used in caulking and/or adhesive materials used in bathtubs, showers and the like. ASTM (American Society for Testing Materials) Test Method D-3273 00, dealing with resistance to surface mold fungi and mildew was used. Generally, this is an accelerated test calling for a test chamber held at a relative humidity of 95 to 98% and a temperature of 32.5±1° C. (90±2° F.).
Five commercial adhesive compositions known to be susceptible to mildew growth were tested using the microorgainsms Aureobasidium pullulans ATCC 9348, Aspergillus niger ATCC 6275, Penicillium sp. ATCC 9849.
Following this test, a composition comprising 10 g of OPP and 30 g of dodecyl guanidine hydrochloride (DGH) was incorporated into samples of Titebond™ Professional Tub Surround Adhesive at concentrations of 150, 250, 500, 750, and 1000 ppm and the adhesive was tested in the same manner as in Table 2. At 28 days, all of the DGH/OPP compositions were rated at 10.

[4] = Table 1, Minimum Inhibitory Concentration, Penicillium pinophillum
[5] = Table 3, Penicillum pinophillum
[6] = Table 5, Penicillum pinophillum
[7] = Table 1, Minimum Inhibitory Concentration, Wild strain - Alternaria sp.
[8] = Table 3, Wild strain - Atlernaria sp.
[9] = Table 5, Wild Strain - Alternaria sp.
[10] = Table 1, Minimum Inhibitory Concentration, Mixed inoculum
[11] = Table 1, Minimum Inhibitory Concentration

Compound: CCCCCCCCCCCCNC(=N)N [DGH, Dodecyl guanidine hydrochloride]
- Concentration of DGH alone (Penicillium pinophillum; [4]): 62.5
- DGH conc (ppm) alone (Penicillium pinophillum; [5]): 62.5 ppm
- Conc. Of DGH alone (Penicillium pinophillum; [6]): 62.5
- Concentration of DGH alone [1, 7]: 125
- DGH conc (ppm) alone [1, 8]: 125 ppm
- Conc. Of DGH alone [1, 9]: 62.5
- Concentration of DGH alone (Mixed inoculum; [10]): 125
- DGH conc (ppm) alone (Mixed inoculum; Table 3, Mixed inoculum): 125 ppm
- Conc. Of DGH alone (Mixed inoculum; Table 5, Mixed Inoculum): 62.5
- Concentration of DGH alone (Aspergillus niger; [11]): 62.5
- DGH conc (ppm) alone (Aspergillus niger; Table 3): 62.5 ppm
- Conc. Of DGH alone (Aspergillus niger; Table 5): 62.5
- Synergy Index [2]: 1.00

Compound: Oc1ccccc1-c1ccccc1 [OPP, o-phenylphenol]
- Concentration of OPP alone (Penicillium pinophillum; [4]): 15.6
- OPP conc (ppm) alone (Penicillium pinophillum; [5]): 15.6 ppm
- Concentration of OPP alone [1, 7]: 15.6
- OPP conc (ppm) alone [1, 8]: 15.6 ppm
- Concentration of OPP alone (Mixed inoculum; [10]): 15.6
- OPP conc (ppm) alone (Mixed inoculum; Table 3, Mixed inoculum): 15.6 ppm
- Concentration of OPP alone (Aspergillus niger; [11]): 15.6
- OPP conc (ppm) alone (Aspergillus niger; Table 3): 15.6 ppm

Compound: dodecyl guanidine acetate [DGA]
- mildew inhibition [3]: effective mildew inhibitors

Compound: CNC(=S)[S-].[Na+] [NaMetam, sodium methyldithiocarbamate]
- Conc of NaMetam alone (Penicillium pinophillum; [6]): 31.2
- Conc of NaMetam alone [1, 9]: 125
- Conc of NaMetam alone (Mixed inoculum; Table 5, Mixed Inoculum): 250
- Conc of NaMetam alone (Aspergillus niger; Table 5): 31.2

Compound: [Na+].[O-]c1ccccc1-c1ccccc1 [NaOPP, sodium orthophenylphenate]
- Synergy Index [2]: 1.00
